Measurements from patent US20130295083A1, “2a-Methyl-19-nor-(20S)-1a,25-dihydroxyvitamin D3 (2AMD) or 2 methylene-19-nor-(20S)-1a,25-dihydroxyvitamin D3 (2MD) Support Survival and Function of Transplanted Islet Cells In Type 1 Diabetes” (Wisconsin Alumni Research Foundation, priority 2012, published 2013).

Experiments:
[1] = Serum calcium analysis in transplanted NOD mice; format: in vivo; settings: 400 pg/day
Experimental: (§1) Mice were treated with either 400 picograms of 2AMD/mouse/day or with vehicle. 2AMD was administered by addition of the analog in the vehicle to LabDiet 5K52 (PMI Nutrition, Brentwood, Miss.). In order to deliver the designated dose of 2AMD, a stock solution of the analog was dissolved in EtOH, vortexed for 3 min, and the analog concentration was determined by spectrophotometry. Based on pre-determined diet consumption, diet was prepared to provide 400 pg of 2AMD/mouse/day. The diets were solidified with molten agar (USB Corporation, Cleveland, Ohio). Controls were fed diet prepared as described above but the vehicle containing no 2AMD. Mice in each group were fed either 2AMD diet or vehicle diet from the day of diabetes determination until the completion of the study.
Blood was collected from the orbital sinus 3 weeks after initiation of control or 2AMD treatment and every 3 weeks thereafter. Blood samples were spun at 2,938 g for 15 min, followed by a second and third spin at 16,883 g, each for 2 min. Serum calcium levels were determined by atomic absorption in 0.1% LaCl3.

[2] = test system: insulin-2 knockout non-obese diabetic mouse; settings: rodent model of spontaneous T1D; Kiekhaefer et al. 2011; cited from earlier work
[3] = Adverse effects: food consumption, weight gain, body weights in transplanted NOD mice; format: in vivo
Experimental: as §1

[4] = test system: Female NOD mice; assay: Islet transplantation in spontaneously diabetic NOD mice: duration of normoglycemia / graft survival; format: in vivo; settings: for Duration of Normoglycemia: 2 mice; for diabetes reversal / indefinite survival of syngeneic islet grafts: 400 pg/mouse/day
[5] = chow-based diet, 800 islet equivalents
[6] = purified diet, 400 islet equivalents

Substance “2α-methyl-19-nor-(20S)-1α,25-dihydroxyvitamin D3 [2AMD]” has an average serum calcium ([1]; chow diet, 400 islet equivalents, control 10.0 mg/dl) of 10.7 mg/dL, an average serum calcium ([1]; chow-based diet, 800 islet equivalents, control mice 9.8 mg/dl) of 10.3 mg/dL and an average serum calcium ([1]; purified diet, 400 islet equivalents, control 10.0 mg/dl) of 10.8 mg/dL. The “effect on development of type 1 diabetes” value [2] was “prevented the transition from insulitis to diabetes”, the “adverse effects as revealed by food consumption, weight gain and comparative body weights” value ([3]; 400 pg/day, chow-based diet, 800 islet equivalents) was “No adverse effects” and the “food consumption, weight gain, and comparative body weights” value ([3]; 2AMD purified diet group, 400 islet equivalents, attributed to hydration of two dietary components (early satiety), reversed after replacement at week 22) was “reduced”. For the same substance, the “Duration of Normoglycemia” value ([4]; chow diet, 400 islet equivalents, 400 pg 2AMD/mouse/day, vehicle control 28 days) was ≥ 83 days, the Duration of Normoglycemia ([4]; chow-based diet, 800 islet equivalents, 400 pg 2AMD/mouse/day in diet, vehicle control 110 days) was > 230 days and the diabetes reversal [4, 5] was 100%. For the same substance, the “indefinite survival of syngeneic islet grafts” value [4, 5] was 100%, the “additional days of continuing normoglycemia compared to the untreated control” value ([4]; murine model, 2AMD treatment vs untreated control) was “at least 130 days” and the diabetes reversal [4, 6] was 100%. The “indefinite survival of syngeneic islet grafts” value [4, 6] was 100%.
